Test results from patent publication US12186359B2, “Composition containing branched-chain amino acids” (priority 2019, dated 2025).
Peptide text beside a SMILES is read from it.

Settings: mouse, in vivo
Procedure: The aim of the study was to compare the exposure of L-Leucine-13C6, 15N, L-Isoleucine-13C6, 15N, L-Valine-13C5, 15N in plasma after their administration alone or in association with L-Alanine or L-Alanyl-L-alanine in the mouse. Plasma samples were analyzed by dean-up and derivatization using the EZfaast™ amino acid analysis kit (Phenomenex) and analyzed by UPLC-MSMS.
CD1 mouse with body weights of 25-30 gr at the time of the treatment were used in this study, approximate age was about 4 weeks according to growth curve. The animals were originally supplied by Harlan, Italy. Once receipt from the supplier, the animals were subjected to health examinations and acceptance. The animals were housed, in a group of five, in cages suitable for the species. The animals were acclimatized to local housing conditions for approximately 5 days. The animals were routinely kept in the following environment except for short periods of time where experimental procedures dictated otherwise. The animals were housed in a single, exclusive room, air conditioned to provide a minimum of 15 air changes/hour. […] Clinical signs were monitored at regular intervals throughout the study in order to assess any reaction to treatment. […]

Structure (SMILES): C[C@H](N)C(=O)N[C@@H](C)C(=O)O [L-Alanyl-L-alanine] (H-Ala-Ala-OH)
- Plasma concentrations of the labelled amino acids (AUC0-24 h), rank among groups: highest concentrations
